15 compounds from patent US20130245006A1, “NOVEL INDOLIZINE DERIVATIVES, AND PREPARATION AND THERAPEUTIC USE THEREOF” (SANOFI, priority 2010, published 2013) can be followed below.

Each structure is given as a SMILES string. Values after ≈ are worked out from the molar mass of the structure shown. Counter-ions that a name gives are not always drawn.

Experiment in one data set: not given
Conditions: not given
Consider `CCc1cc2cc(C(=O)OCc3nnn(C)n3)ccn2c1C(=O)c1ccc(CCCNC(C)(C)C)cc1` [compound 49, 3-[4-(3-tert-Butylaminopropyl)benzoyl]-2-ethylindolizine-7-carboxylic acid 2-methyl-2H-tetrazol-5-ylmethyl ester], for which the melting point (in general, the temperature, or range, at which the solid turns liquid) turned out to be 203 °C.

Turning to `CCc1cc2cc(C(=O)N(CC)Cc3nnn(C)n3)ccn2c1C(=O)c1ccc(CCCNC(C)(C)C)cc1` (as salt: hydrochloride) [Compound No. 17, 3-[4-(3-tert-Butylaminopropyl)benzoyl]-2-ethylindolizine-7-carboxylic acid ethyl(2-methyl-2H-tetrazol-5-ylmethyl)amide], the melting point worked out at 172 °C.

`CCN(Cc1nnn(C)n1)C(=O)c1ccn2c(C(=O)c3ccc(CCCNC(C)(C)C)cc3)c(C)cc2c1` [compound 78, 3-[4-(3-tert-Butylaminopropyl)benzoyl]-2-methylindolizine-7-carboxylic acid ethyl(2-methyl-2H-tetrazol-5-ylmethyl)amide] had a melting point of 153 °C.

For the compound `CCN(Cc1nnn(C)n1)C(=O)c1ccn2c(C(=O)c3ccc(CCCNC(C)(C)C)cc3)c(C3CCC3)cc2c1` [compound 42, 3-[4-(3-tert-Butylaminopropyl)benzoyl]-2-cyclobutylindolizine-7-carboxylic acid ethyl(2-methyl-2H-tetrazol-5-ylmethyl)amide], the melting point turned out to be 195 °C.

Consider `CCc1cc2cc(C(=O)N(CC)Cc3ccn(C)n3)ccn2c1C(=O)c1ccc(CCCNC(C)(C)C)cc1` [compound 44, 3-[4-(3-tert-Butylaminopropyl)benzoyl]-2-ethylindolizine-7-carboxylic acid ethyl(1-methyl-1H-pyrazol-3-ylmethyl)amide], for which the melting point was determined as 149 °C.

`CCN[C@@H](CCc1ccc(C(=O)c2c(CC)cc3cc(C(=O)N(CC)Cc4nnn(C)n4)ccn23)cc1)C(C)C` (as salt: hydrochloride) [Compound No. 20, 2-Ethyl-3-[4-((S)-3-ethylamino-4-methylpentyl)benzoyl]indolizine-7-carboxylic acid ethyl(2-methyl-2H-tetrazol-5-ylmethyl)amide] gave a melting point of 100 °C.

The compound `CCc1cc2cc(C(=O)N(CC(=O)OC)C(C)C)ccn2c1C(=O)c1ccc(CCC(C)(C)NC2CCCC2)cc1` (as salt: hydrochloride) [Compound No. 19, ({3-[4-(3-Cyclopentylamino-3-methylbutyl)benzoyl]-2-ethylindolizine-7-carbonyl}isopropylamino)acetic acid methyl ester] had a melting point of 245 °C.

Compound `CCc1cc2cc(C(=O)N(CC)Cc3cc(C)on3)ccn2c1C(=O)c1ccc(CCCNC(C)(C)C)cc1` [compound 46, 3-[4-(3-tert-Butylaminopropyl)benzoyl]-2-ethylindolizine-7-carboxylic acid ethyl(5-methylisoxazol-3-ylmethyl)amide] showed a melting point of 175 °C.

The compound `CCc1cc2cc(C(=O)N(CC)Cc3cnn(C)c3)ccn2c1C(=O)c1ccc(CCCNC(C)(C)C)cc1` [compound 45, 3-[4-(3-tert-Butylaminopropyl)benzoyl]-2-ethylindolizine-7-carboxylic acid ethyl(1-methyl-1H-pyrazol-4-ylmethyl)amide] had a melting point of 173 °C.

In turn, `CCc1cc2cc(C(=O)N3CCNC(=O)C3)ccn2c1C(=O)c1ccc(CCCNC(C)(C)C)cc1` [compound 38, 4-{3-[4-(3-tert-Butylaminopropyl)benzoyl]-2-ethylindolizine-7-carbonyl}piperazin-2-one] yielded a melting point of 122 °C.

The compound `CCOCCN(CC)C(=O)c1ccn2c(C(=O)c3ccc(CCCNC4CCCC4)cc3)c(CC)cc2c1` [compound 37, 3-[4-(3-Cyclopentylaminopropyl)benzoyl]-2-ethylindolizine-7-carboxylic acid (2-ethoxyethyl)ethylamide] gave a melting point of 146.4 °C.

The compound `CCCCc1cc2cc(C(=O)N(CC)CC)ccn2c1C(=O)c1ccc(C2CCNCC2)cc1` [compound 66, 2-Butyl-3-(4-piperidin-4-yl-benzoyl) indolizine-7-carboxylic acid diethylamide] displayed a melting point of 149.6 °C.

Regarding `CCc1cc2cc(C(=O)N(CC)Cc3nnn(C)n3)ccn2c1C(=O)c1ccc(CCC(C)(C)NC(C)(C)C)cc1` (as salt: hydrochloride) [Compound No. 18, 3-[4-(3-tert-Butylamino-3-methylbutyl)benzoyl]-2-ethylindolizine-7-carboxylic acid ethyl(2-methyl-2H-tetrazol-5-ylmethyl)amide], the melting point was determined as 122 °C.

Take `CCc1cc2cc(C(=O)N3CCNC(=O)CC3)ccn2c1C(=O)c1ccc(CCCNC2CCCC2)cc1` [compound 53, 1-{3-[4-(3-Cyclopentylaminopropyl)benzoyl]-2-ethylindolizine-7-carbonyl}[1,4]diazepam-5-one]: the melting point amounted to 176 °C.

Consider `CCc1cc2cc(C(=O)O[C@H]3CNC(=O)C3)ccn2c1C(=O)c1ccc(CCCNC(C)(C)C)cc1` [compound 52, 3-[4-(3-tert-Butylaminopropyl)benzoyl]-2-ethylindolizine-7-carboxylic acid (R)-5-oxopyrrolidin-3-yl ester], for which the melting point turned out to be 162 °C.

Another data set is described as follows: Solubility by HPLC relative to a reference sample. The format is physicochemical. Conditions: aqueous buffer, phosphate buffer, at the pH given. The procedure: The evaluation of the solubility of the compounds of the invention is carried out at pH 4 (using a phosphate buffer, […]) by HPLC using an H2O/CH3CN/CH3SO3H gradient, relative to a reference sample (a dilute solution of the product to be evaluated which serves as an internal control). The solubility S results are expressed in mg/ml. Generally, the compounds of the present invention have a solubility S≧4 mg/ml at pH≧4. Among them, mention may be made of the solubilities of the following compounds in the table below: […]
As for `CCc1cc2cc(C(=O)N(CC)Cc3cc(C)on3)ccn2c1C(=O)c1ccc(CCCNC(C)(C)C)cc1` [compound 46, 3-[4-(3-tert-Butylaminopropyl)benzoyl]-2-ethylindolizine-7-carboxylic acid ethyl(5-methylisoxazol-3-ylmethyl)amide], the solubility (commonly how much of the substance goes into solution per volume) was determined as 1730 µg/mL (≈ 3.27 mM).

As to `CCc1cc2cc(C(=O)N3CCNC(=O)CC3)ccn2c1C(=O)c1ccc(CCCNC2CCCC2)cc1` [compound 53, 1-{3-[4-(3-Cyclopentylaminopropyl)benzoyl]-2-ethylindolizine-7-carbonyl}[1,4]diazepam-5-one], the solubility amounted to 6930 µg/mL (≈ 13.5 mM).
